The values that follow come from patent US20240383856A1 (Zedira GmbH, priority 2021, published 2024).

Some results are limits rather than exact numbers.

Data set [1] in a line: Caco-2 permeability assay (CacoReady kit). The class given is in vitro ADME. The note with it: human, Caco-2, Caco-2 barrier, CacoReady kit; above 1×10^−6 cm/s classified as permeable. Here is the method:
Permeability coefficients (Papp values) were obtained from Caco-2 barrier studies predicting oral/intestinal bioavailability of the tested compounds. The assays were performed by using CacoReady™ ready-to-use kits from ReadyCell according to the manufacturers protocol.
A general note: Caco-2 cells form a polarised layer with tight junctions and transporters.

Data set [2] is described as follows: logD by shake flask method (octanol / PBS pH 7.4, HPLC). The class given is physicochemical. The note with it: octanol / PBS pH 7.4, shake flask. Here is the method: In order to classify the inventive compounds according to their lipophilicity, LogD values (distribution coefficient) were determined by means of the well-established shake flask method, measuring the partition of a compound between an octanol and phosphate-buffered saline (PBS, pH 7.4) by HPLC.
The LogD is pH dependent and is a “predictor” for in-vivo properties. LogD combines lipophilicity (intrinsic structural property of the molecule, logP) and ionizability (pKa). Compounds with a moderate lipophilicity (LogD values from 0 to 3) are usually advantaged for oral absorption, being in balance between solubility and permeability. However, sophisticated formulation of a compound might improve oral bioavailability for highly lipophilic compounds.

In data set [3] the target is T1, recombinant human transglutaminase 2 (Homo sapiens, UniProt P21980).
T1 construct: purchased Zedira T022
T1 sequence (P21980 1-687): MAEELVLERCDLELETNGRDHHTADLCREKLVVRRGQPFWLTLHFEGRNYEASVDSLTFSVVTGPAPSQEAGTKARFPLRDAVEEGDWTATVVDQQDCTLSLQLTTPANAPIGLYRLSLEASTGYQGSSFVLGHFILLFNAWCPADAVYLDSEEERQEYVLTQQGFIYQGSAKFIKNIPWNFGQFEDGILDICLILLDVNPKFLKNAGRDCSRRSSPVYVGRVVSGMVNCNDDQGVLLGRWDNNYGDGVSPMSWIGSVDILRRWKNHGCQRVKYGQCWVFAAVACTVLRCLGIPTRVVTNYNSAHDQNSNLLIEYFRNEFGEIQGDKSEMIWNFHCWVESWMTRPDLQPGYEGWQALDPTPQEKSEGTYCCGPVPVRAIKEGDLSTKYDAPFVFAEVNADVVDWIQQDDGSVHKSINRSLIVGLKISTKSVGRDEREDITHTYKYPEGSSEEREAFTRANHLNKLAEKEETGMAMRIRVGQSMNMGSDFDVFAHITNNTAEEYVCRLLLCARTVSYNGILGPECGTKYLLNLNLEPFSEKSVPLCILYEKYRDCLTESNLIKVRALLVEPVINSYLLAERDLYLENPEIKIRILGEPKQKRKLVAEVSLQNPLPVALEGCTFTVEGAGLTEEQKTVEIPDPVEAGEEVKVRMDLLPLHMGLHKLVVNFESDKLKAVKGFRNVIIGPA
The data set can be described thus: Transglutaminase assay (DCC-assay): incorporation of dansylcadaverine into dimethylcasein. The class given is biochemical. The following applies: recombinant human TG2 10 nM; dansylcadaverine incorporation into dimethylcasein; read-out: IC50 TG2. The procedure:
To illustrate the advantage of branched alkyl moieties over aromatic moieties, we refer to reference compounds Ref. 2 (ZED1227, U.S. Pat. No. 9,434,763 B2) and Ref. 3 (A8, ZED1047). Inhibition data were determined using the classical fluorescent transamidation assay (dansylcadaverine incorporation into methylated casein, DCC-assay) as described [Buchold, C.; Hils, M.; Gerlach, U.; Weber, J.; Pelzer, C.; Heil, A.; Aeschlimann, D.; Pasternack, R. Features of ZED1227: The First-In-Class Tissue Transglutaminase Inhibitor Undergoing Clinical Evaluation for the Treatment of Celiac Disease. Cells 2022, 11, 1667. https://doi.org/10.3390/cells11101667]. Casein is one of the best known high molecular weight (24 kDa) protein substrates for transglutaminases. Please note, the IC50 value of Ref. 3 (A8) published in U.S. Pat. No. 9,434,763 B2 cannot be compared to the present data, relying on a fluorogenic isopeptidase assay.
To this extent, inhibition data were determined using the classical fluorescent transamidation assay (dansylcadaverine incorporation into methylated casein, DCC-assay) as described in Büchold et al. [Büchold, C.; Hils, M.; Gerlach, U.; Weber, J.; Pelzer, C.; Heil, A.; Aeschlimann, D.; Pasternack, R. Features of ZED1227: The First-In-Class Tissue Transglutaminase Inhibitor Undergoing Clinical Evaluation for the Treatment of Celiac Disease. Cells 2022, 11, 1667. https://doi.org/10.3390/cells11101667]. Casein is one of the best known high molecular weight (24 kDa) protein substrates for transglutaminases. Inhibition data of the inventive compounds was compared with inhibition of compounds disclosed in U.S. Pat. No. 9,434,763 B2, particularly, compound A8, which is denoted herein as Reference 3. It is noteworthy that the IC50 values of compounds A8 published in U.S. Pat. No. 9,434,763 B2 and E16 from U.S. Pat. No. 11,072,634 B2 cannot be compared to the present data, relying on a fluorogenic isopeptidase assay.
For the determination of potency of inhibitors against tissue transglutaminase, the incorporation of dansylcadaverine into dimethylcasein (Zedira product T036, Lorand et al., Anal Biochem, 1971, 44:221-31) was measured using recombinant human transglutaminase 2 (Zedira Product T022).
The tissue transglutaminase is diluted in buffer (50 mM Tris-HCl, 7.5 mM CaCl2), 150 mM NaCl, pH=7.4). The final concentration of TG2 in the assay is 10 nM.
A 10 mM inhibitor stock solution is prepared in DMSO, and from this a serial 1:2-fold dilution series is prepared also in DMSO. Each of the initial dilutions is subsequently diluted 1:50-fold with buffer (50 mM Tris-HCl, 7.5 mM CaCl2), 150 mM NaCl, pH=7.4) to yield the final working dilutions containing 2% (v/v) DMSO.
15 μl of inhibitor working dilution are added per well of a 96 well microtiter plate. As control, 15 μl of a 2% (v/v) DMSO solution prepared using the buffer mentioned above are added per well.
Immediately before starting the assay, 600 μl transglutaminase working solution are added to 11.4 ml assay buffer (50 mM Tris-HCl, 10 mM CaCl2), 10 mM glutathione, 2.5% glycerol, 16.7 µM dansylcadaverine, 4 uM N,N-dimethylcasein, 200 mM NaCl, pH=8.0). 285 μl of this reaction mix are added per well containing the inhibitor.
Increase in fluorescence is measured using λex=330 nm and λem=500 nm at 37° C. for 30 min. A slope of the increase in fluorescence between 20 and 30 min is calculated for determination of the IC50 value (inhibitor concentration at which 50% of the initial activity is blocked).
Analysis of enzymatic activity is performed by calculation of the slope of an increase in fluorescence intensity. IC50 values are calculated by plotting the enzymatic activity (as percentage from control containing 2% DMSO instead of inhibitor) against the inhibitor concentration. IC50 is defined as the inhibitor concentration blocking 50% of initial enzyme activity.

As to `CNC(=O)C(=O)CC[C@H](NC(=O)c1ccc(Cl)o1)C(=O)Nc1cccn(CC(=O)NC2C3CC4CC(C3)CC2C4)c1=O` (stereo partly drawn) [II-26, (S)-2-(5-chlorofuran-2-carboxamido)-N1-(1-(2-(2-adamantylamino)-2-oxoethyl)-2-oxo-1,2-dihydropyridin-3-yl)-N6-methyl-5-oxohexanediamide], the Papp in data set [1] is 1 to 10 ×10⁻⁶ cm/s. In data set [2], this compound displayed a logD of 1 to 3. For the same compound, the IC50 in data set [3] fell in the range of 40 to 400 nM.

As to `CNC(=O)C(=O)CC[C@H](NC(=O)c1csc(Cl)c1)C(=O)Nc1cccn(CC(=O)NC2C3CC4CC(C3)CC2C4)c1=O` (stereo partly drawn) [II-27, (S)-2-(5-chlorothiophene-3-carboxamido)-N1-(1-(2-(2-adamantylamino)-2-oxoethyl)-2-oxo-1,2-dihydropyridin-3-yl)-N6-methyl-5-oxohexanediamide], the Papp in data set [1] was in the range of 1 to 10 ×10⁻⁶ cm/s. The compound also returned a logD in data set [2] of 1 to 3. Besides, the IC50 in data set [3] was in the range of 40 to 400 nM.

On to `CNC(=O)C(=O)CC[C@H](NC(=O)c1cc(Br)sc1Br)C(=O)Nc1cccn(CC(=O)NC2C3CC4CC(C3)CC2C4)c1=O` (stereo partly drawn) [II-29, (S)-2-(2,5-dibromothiophene-3-carboxamido)-N1-(1-(2-(2-adamantylamino)-2-oxoethyl)-2-oxo-1,2-dihydropyridin-3-yl)-N6-methyl-5-oxohexanediamide], for which, in data set [1], the Papp lay in the range of 1 to 10 ×10⁻⁶ cm/s. For the same compound, in data set [2], the logD lay within 3 to 5. In addition, the IC50 in data set [3] is under 40 nM.

`CNC(=O)C(=O)CC[C@H](NC(=O)c1csc(Br)c1)C(=O)Nc1cccn(CC(=O)NC2C3CC4CC(C3)CC2C4)c1=O` (stereo partly drawn) [II-30, (S)-2-(5-bromothiophene-3-carboxamido)-N1-(1-(2-(2-adamantylamino)-2-oxoethyl)-2-oxo-1,2-dihydropyridin-3-yl)-N6-methyl-5-oxohexanediamide] displayed a Papp in data set [1] of 1 to 10 ×10⁻⁶ cm/s. The compound also had a logD in data set [2] of 3 to 5. In addition, in data set [3], the IC50 was under 40 nM.

`CNC(=O)C(=O)CC[C@H](NC(=O)c1nc(Cl)sc1C)C(=O)Nc1cccn(CC(=O)NC2C3CC4CC(C3)CC2C4)c1=O` (stereo partly drawn) [II-31, (S)-2-(2-chloro-5-methylthiazole-4-carboxamido)-N1-(1-(2-(2-adamantylamino)-2-oxoethyl)-2-oxo-1,2-dihydropyridin-3-yl)-N6-methyl-5-oxohexanediamide] returned a Papp in data set [1] of 1 to 10 ×10⁻⁶ cm/s. In data set [2], this compound displayed a logD of 1 to 3. The IC50 in data set [3] fell in the range of 40 to 400 nM.

In the case of `CNC(=O)C(=O)CC[C@H](NC(=O)c1nc(Cl)sc1Cl)C(=O)Nc1cccn(CC(=O)NC2C3CC4CC(C3)CC2C4)c1=O` (stereo partly drawn) [II-32, (S)-2-(2,5-dichlorothiazole-4-carboxamido)-N1-(1-(2-(2-adamantylamino)-2-oxoethyl)-2-oxo-1,2-dihydropyridin-3-yl)-N6-methyl-5-oxohexanediamide], the Papp in data set [1] was 1 to 10 ×10⁻⁶ cm/s. The compound also returned a logD in data set [2] of 1 to 3. For the same compound, the IC50 in data set [3] is 40 to 400 nM.

The compound `CNC(=O)C(=O)CC[C@H](NC(=O)c1nc(Br)sc1Br)C(=O)Nc1cccn(CC(=O)NC2C3CC4CC(C3)CC2C4)c1=O` (stereo partly drawn) [II-33, (S)-2-(2,5-dibromothiazole-4-carboxamido)-N1-(1-(2-(2-adamantylamino)-2-oxoethyl)-2-oxo-1,2-dihydropyridin-3-yl)-N6-methyl-5-oxohexanediamide] had a Papp in data set [1] of over 10 ×10⁻⁶ cm/s. The compound also gave a logD in data set [2] of 1 to 3. In addition, in data set [3], the IC50 lay in the range of 40 to 400 nM.

The compound `CNC(=O)C(=O)CC[C@H](NC(=O)c1nc(Br)sc1C)C(=O)Nc1cccn(CC(=O)NC2C3CC4CC(C3)CC2C4)c1=O` (stereo partly drawn) [II-34, (S)-2-(2-bromo-5-methylthiazole-4-carboxamido)-N1-(1-(2-(2-adamantylamino)-2-oxoethyl)-2-oxo-1,2-dihydropyridin-3-yl)-N6-methyl-5-oxohexanediamide] had a Papp in data set [1] of over 10 ×10⁻⁶ cm/s. Besides, in data set [2], the logD is 1 to 3. The IC50 in data set [3] lay in the range of 40 to 400 nM.

On to `CNC(=O)C(=O)CC[C@H](NC(=O)c1csc(Br)n1)C(=O)Nc1cccn(CC(=O)NC2C3CC4CC(C3)CC2C4)c1=O` (stereo partly drawn) [II-35, (S)-2-(2-bromothiazole-4-carboxamido)-N1-(1-(2-(2-adamantylamino)-2-oxoethyl)-2-oxo-1,2-dihydropyridin-3-yl)-N6-methyl-5-oxohexanediamide], for which the Papp in data set [1] was in the range of 1 to 10 ×10⁻⁶ cm/s. Also, in data set [2], the logD was in the range of 1 to 3. Further, the IC50 in data set [3] was 40 to 400 nM.

Turning to `CNC(=O)C(=O)CC[C@H](NC(=O)c1csc(Cl)n1)C(=O)Nc1cccn(CC(=O)NC2C3CC4CC(C3)CC2C4)c1=O` (stereo partly drawn) [II-36, (S)-2-(2-chlorothiazole-4-carboxamido)-N1-(1-(2-(2-adamantylamino)-2-oxoethyl)-2-oxo-1,2-dihydropyridin-3-yl)-N6-methyl-5-oxohexanediamide], the Papp in data set [1] fell in the range of 1 to 10 ×10⁻⁶ cm/s. In data set [2], the logD lay within 1 to 3. The IC50 in data set [3] lay within 40 to 400 nM.

Compound `CNC(=O)C(=O)CC[C@H](NC(=O)c1cc(C)oc1C)C(=O)Nc1cccn(CC(=O)NC2C3CC4CC(C3)CC2C4)c1=O` (stereo partly drawn) [II-37, (S)-2-(2,5-dimethylfuran-3-carboxamido)-N1-(1-(2-(2-adamantylamino)-2-oxoethyl)-2-oxo-1,2-dihydropyridin-3-yl)-N6-methyl-5-oxohexanediamide] registered a Papp in data set [1] of 1 to 10 ×10⁻⁶ cm/s. For the same compound, the logD in data set [2] is 1 to 3. The IC50 in data set [3] was 40 to 400 nM.

`CNC(=O)C(=O)CC[C@H](NC(=O)c1nc(C)c(C)s1)C(=O)Nc1cccn(CC(=O)NC2C3CC4CC(C3)CC2C4)c1=O` (stereo partly drawn) [II-38, (S)-2-(4,5-dimethylthiazole-2-carboxamido)-N1-(1-(2-(2-adamantylamino)-2-oxoethyl)-2-oxo-1,2-dihydropyridin-3-yl)-N6-methyl-5-oxohexanediamide] had a Papp in data set [1] of 1 to 10 ×10⁻⁶ cm/s. Moreover, the logD in data set [2] fell in the range of 3 to 5. Further, the IC50 in data set [3] fell in the range of 400 to 2500 nM.

For orientation: Papp means a coefficient for how fast a substance crosses the barrier. A higher Papp goes with fast passage. For orientation: logD means lipophilicity at a set pH, counting ionised and neutral species. A low value points to lower lipophilicity. A word on the IC50: it is the concentration at which inhibition is half-maximal.
